Assay [1] concerns rabbits with experimental glaucoma. In words: Restenosis following glaucoma treatment in rabbits with experimental glaucoma (Example 1). In kind it is in vivo, rabbit. To be noted: rabbits treated for glaucoma by drilling an anastomy; peptides injected into the aqueous humor. The procedure:
To test the effect of the 21 amino acid IP-10 peptide (SEQ ID NO: 2) on restenosis following glaucoma treatment, an experiment is conducted in rabbits with experimental glaucoma.
Rabbits are treated with IP-10 peptide (SEQ ID NO: 2), PF4, or a scrambled control peptide. Rabbits are treated for glaucoma by drilling an anastomy. The peptides are then injected into the aqueous humor.
Changes in pressure are evaluated before and after treatment with the peptides.

Assay [2] deals with rabbits with experimental WMD. Nature of the assay: Wet macular degeneration in rabbits with experimental WMD (Example 2). In kind it is in vivo, rabbit. To be noted: injection into the vitreous humor, repeated as necessary. The procedure:
To test the effect of the 21 amino acid IP-10 peptide (SEQ ID NO: 2) on wet macular degeneration (WMD), an experiment is conducted in rabbits with experimental WMD.
Rabbits are treated with IP-10 peptide (SEQ ID NO: 2), PF4, or a scrambled control peptide by injection into the vitreous humor. Rabbits are evaluated visually over time to evaluate the effect of each peptide. Injections are repeated as necessary.

We go through two molecules from patent publication US11406687B2, “Activators of CXCR3 for the treatment of angiopathies of the eye” (University of Pittsburgh—Of the Commonwealth System of …, priority 2011, dated 2022).

As to “IP-10 peptide: 21 amino acid fragment of human IP-10, ESKAIKNLLKAVSKERSKRSP (listed as Homo sapiens)”, the “Changes in pressure before and after treatment with the peptides” value in assay [1] is on record as “prevent an increase in pressure”. The “Effect on WMD, evaluated visually over time” value in assay [2] is on record as “inhibit the development of WMD and/or lead to a reversion of WMD”.

B1: PF4: 70-amino acid CXC chemokine released from alpha-granules of activated platelets; human PF4 sequence SEQ ID NO: 3 (protein, listed as Homo sapiens)
chain: EAEEDGDLQCLCVKTTSQVRPRHITSLEVIKAGPHCPTAQLIATLKNGRKICLDLQAPLYKKIIKKLLES
Take B1: the “Changes in pressure before and after treatment with the peptides” value in assay [1] is recorded as “prevent an increase in pressure”. In addition, the “Effect on WMD, evaluated visually over time” value in assay [2] was “inhibit the development of WMD and/or lead to a reversion of WMD”.
